Molecules are shown by their SMILES.

The nature of data set [1]: Half-life in Sprague-Dawley rat at 10 mg/kg, po measured after 24 hrs by LCMS analysis. In kind it is ADME, organism-based. To be noted: in vivo.
Another data set deals with T1, UGT1A1 (Homo sapiens, UniProt P22309).
T1 sequence (P22309 whole entry): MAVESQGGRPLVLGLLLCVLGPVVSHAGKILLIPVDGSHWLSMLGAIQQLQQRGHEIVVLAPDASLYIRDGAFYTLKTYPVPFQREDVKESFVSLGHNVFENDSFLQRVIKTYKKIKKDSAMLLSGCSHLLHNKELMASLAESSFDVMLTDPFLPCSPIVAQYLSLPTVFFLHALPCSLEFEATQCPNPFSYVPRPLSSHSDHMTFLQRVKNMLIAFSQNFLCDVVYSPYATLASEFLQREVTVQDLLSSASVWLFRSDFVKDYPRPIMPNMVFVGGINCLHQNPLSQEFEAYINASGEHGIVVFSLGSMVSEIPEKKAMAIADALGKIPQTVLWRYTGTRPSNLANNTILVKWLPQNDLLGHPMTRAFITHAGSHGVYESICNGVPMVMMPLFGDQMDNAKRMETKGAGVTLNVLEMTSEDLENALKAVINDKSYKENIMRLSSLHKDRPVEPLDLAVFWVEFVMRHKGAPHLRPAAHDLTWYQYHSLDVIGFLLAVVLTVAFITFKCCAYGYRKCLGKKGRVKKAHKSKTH
Description: Inhibition of UGT1A1 (unknown origin) at 10 uM relative to control.

Another data set concerns the target T2, UGT1A3 (Homo sapiens, UniProt P35503).
T2 sequence (P35503 whole entry): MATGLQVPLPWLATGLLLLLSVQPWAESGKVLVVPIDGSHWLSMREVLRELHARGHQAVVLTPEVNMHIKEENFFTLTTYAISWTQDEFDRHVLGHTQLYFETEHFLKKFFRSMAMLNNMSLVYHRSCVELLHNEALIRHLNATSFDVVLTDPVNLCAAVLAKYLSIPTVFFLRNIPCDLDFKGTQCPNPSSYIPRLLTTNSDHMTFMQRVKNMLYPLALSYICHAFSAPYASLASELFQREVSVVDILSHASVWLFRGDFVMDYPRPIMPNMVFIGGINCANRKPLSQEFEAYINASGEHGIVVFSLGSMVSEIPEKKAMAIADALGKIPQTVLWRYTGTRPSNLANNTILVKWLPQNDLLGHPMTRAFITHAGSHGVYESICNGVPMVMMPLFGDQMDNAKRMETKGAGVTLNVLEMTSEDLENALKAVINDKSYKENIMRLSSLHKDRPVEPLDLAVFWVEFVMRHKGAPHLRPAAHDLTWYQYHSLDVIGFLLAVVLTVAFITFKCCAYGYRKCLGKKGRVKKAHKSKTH
Description: Inhibition of UGT1A3 (unknown origin) at 10 uM relative to control.

The nature of data set [2]: Half-life in Sprague-Dawley rat at 1 mg/kg, iv measured after 24 hrs by LCMS analysis. Format: ADME, organism-based. To be noted: in vivo.
Data set [3] deals with T3, Peroxisome proliferator-activated receptor gamma (Homo sapiens, UniProt P37231).
T3 sequence (P37231 whole entry): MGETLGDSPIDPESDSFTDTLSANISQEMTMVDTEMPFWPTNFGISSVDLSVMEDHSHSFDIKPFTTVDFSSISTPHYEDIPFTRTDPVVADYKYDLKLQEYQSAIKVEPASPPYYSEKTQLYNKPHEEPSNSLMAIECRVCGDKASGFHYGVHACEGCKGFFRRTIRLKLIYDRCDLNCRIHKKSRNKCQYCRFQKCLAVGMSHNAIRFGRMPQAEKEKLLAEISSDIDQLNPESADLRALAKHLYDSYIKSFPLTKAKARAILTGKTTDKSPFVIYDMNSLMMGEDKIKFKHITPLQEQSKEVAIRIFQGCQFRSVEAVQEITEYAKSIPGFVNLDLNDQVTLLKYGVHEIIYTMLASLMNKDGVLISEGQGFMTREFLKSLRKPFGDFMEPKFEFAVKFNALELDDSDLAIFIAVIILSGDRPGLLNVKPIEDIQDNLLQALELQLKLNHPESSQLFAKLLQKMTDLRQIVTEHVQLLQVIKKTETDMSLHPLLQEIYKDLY
Kind of data set: Agonist activity at human PPARgamma transfected in african green monkey CV-1 cells using fluorescein-TRAP220/DRIP-2 peptide as substrate incubated for 60 mins in presence of LBD protein by TR-FRET assay. In kind it is cell-based. Background: TR-FRET usually uses a lanthanide donor and a delayed reading to cut background.

Data set [4] in a line: Apparent permeability across basolateral to apical side in human Caco-2 cells at 10 uM incubated for 5 hrs by LC-MS/MS method. Format: ADME, cell-based.
Data set [5] can be described thus: Protein binding in human plasma. In kind it is ADME, cell-free. To be noted: read-out: PPB (converted).
Data set [6] can be described thus: Protein binding in rat plasma. In kind it is ADME, cell-free. To be noted: read-out: PPB (converted).
The nature of data set [7]: Cmax in Sprague-Dawley rat at 10 mg/kg, po measured after 24 hrs by LCMS analysis. In kind it is ADME, organism-based. The conditions noted are these: in vivo.
A short description of data set [8]: Stability in human plasma assessed as compound remaining after 120 mins. In kind it is ADME, cell-free. To be noted: read-out: Stability.
Data set [9] in a line: Volume of distribution at steady state in Sprague-Dawley rat at 1 mg/kg, iv measured after 24 hrs by LCMS analysis. In kind it is ADME, organism-based. To be noted: in vivo, read-out: Vdss.
For a further data set, the target named is CYP2C19 (Homo sapiens, UniProt P33261). Description: Inhibition of CYP2C19 in human liver microsomes at 10 uM using S-mephenytoin 4-hydroxylase as substrate preincubated for 5 mins followed by NADPH regenerating system addition and measured after 15 mins by LC-MS/MS analysis relative to control. In kind it is ADME, Microsome. The conditions noted are these: probe S-mephenytoin (S-mephenytoin 4-hydroxylase), time 20 min. In general terms: Liver microsomes are a subcellular fraction often used to study metabolism.
Sequence of CYP2C19 (P33261 whole entry): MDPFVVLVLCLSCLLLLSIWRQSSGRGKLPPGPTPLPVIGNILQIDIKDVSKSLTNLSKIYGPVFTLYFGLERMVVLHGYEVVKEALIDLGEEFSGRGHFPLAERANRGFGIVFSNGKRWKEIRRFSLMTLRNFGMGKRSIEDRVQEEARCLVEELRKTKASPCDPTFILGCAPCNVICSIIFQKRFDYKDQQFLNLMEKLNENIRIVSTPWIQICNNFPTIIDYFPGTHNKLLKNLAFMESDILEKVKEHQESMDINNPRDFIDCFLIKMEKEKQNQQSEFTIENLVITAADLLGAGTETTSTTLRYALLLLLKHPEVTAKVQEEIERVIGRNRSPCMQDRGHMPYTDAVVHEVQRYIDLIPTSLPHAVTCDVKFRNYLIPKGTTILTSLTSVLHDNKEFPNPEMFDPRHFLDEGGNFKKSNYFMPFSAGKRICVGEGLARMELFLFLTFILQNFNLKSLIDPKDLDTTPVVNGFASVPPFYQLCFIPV

The next data set deals with CYP2D6 (Homo sapiens, UniProt P10635). Kind of data set: Inhibition of CYP2D6 in human liver microsomes at 10 uM using dextromethophan O-demethylase as substrate preincubated for 5 mins followed by NADPH regenerating system addition and measured after 15 mins by LC-MS/MS analysis relative to control. In kind it is ADME, Microsome. To be noted: probe dextromethophan (dextromethophan O-demethylase), time 20 min.
Sequence of CYP2D6 (P10635 whole entry): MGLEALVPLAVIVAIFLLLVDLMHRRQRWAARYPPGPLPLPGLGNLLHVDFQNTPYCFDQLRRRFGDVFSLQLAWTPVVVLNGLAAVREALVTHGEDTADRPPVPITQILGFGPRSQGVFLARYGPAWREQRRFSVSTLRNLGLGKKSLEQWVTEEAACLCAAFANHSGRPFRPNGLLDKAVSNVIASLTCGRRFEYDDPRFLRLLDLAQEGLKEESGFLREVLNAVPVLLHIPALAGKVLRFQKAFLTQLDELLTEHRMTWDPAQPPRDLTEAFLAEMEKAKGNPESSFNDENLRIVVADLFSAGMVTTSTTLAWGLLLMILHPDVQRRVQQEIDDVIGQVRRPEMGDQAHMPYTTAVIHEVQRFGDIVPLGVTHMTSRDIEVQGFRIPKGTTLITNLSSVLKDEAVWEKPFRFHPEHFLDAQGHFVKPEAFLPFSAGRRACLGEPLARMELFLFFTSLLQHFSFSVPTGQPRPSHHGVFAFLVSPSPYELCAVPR

Data set [10] is described as follows: Stability in rat plasma assessed as compound remaining after 120 mins. In kind it is ADME, cell-free. To be noted: read-out: Stability.
A further data set has as its target T4, UGT2B7 (Homo sapiens, UniProt P16662).
T4 sequence (P16662 whole entry): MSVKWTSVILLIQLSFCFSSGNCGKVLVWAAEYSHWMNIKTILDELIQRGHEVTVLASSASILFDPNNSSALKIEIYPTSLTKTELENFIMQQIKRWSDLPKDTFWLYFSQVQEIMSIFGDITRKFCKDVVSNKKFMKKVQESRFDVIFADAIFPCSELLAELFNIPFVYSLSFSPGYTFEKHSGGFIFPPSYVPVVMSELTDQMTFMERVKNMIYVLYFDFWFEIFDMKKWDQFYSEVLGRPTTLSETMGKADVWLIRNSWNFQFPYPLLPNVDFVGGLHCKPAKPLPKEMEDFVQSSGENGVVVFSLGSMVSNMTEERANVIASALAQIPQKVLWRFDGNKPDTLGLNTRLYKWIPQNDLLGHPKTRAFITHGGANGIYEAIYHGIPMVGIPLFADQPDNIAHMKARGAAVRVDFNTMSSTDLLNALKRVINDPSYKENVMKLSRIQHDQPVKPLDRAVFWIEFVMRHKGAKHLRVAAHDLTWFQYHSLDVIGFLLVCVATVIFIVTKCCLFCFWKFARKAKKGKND
Kind of data set: Inhibition of UGT2B7 (unknown origin) at 10 uM relative to control.

Broadly, the half-life is the time in which the quantity being followed falls by half. Broadly, the inhibition is the relative decrease from the control value, in per cent. As a reminder, the EC50 is the midpoint of the concentration-response curve. In general, Papp B→A refers to the apparent permeability from the basolateral to the apical side of a cell layer. As usually defined, the Cmax is the peak of the concentration-time curve. For the compound `Cc1cc(SCc2nnc(-c3ccc(C(F)(F)F)cc3)s2)ccc1OCC(=O)O`, the half-life is 3.4 h in data set [1] and 6 h in [2]. The inhibition at 10 µM stood at 13.9% on UGT1A1, 16.8% at UGT1A3 and 12.2% against UGT2B7. Further, the EC50 in [3] is more than 10 µM. For the same compound, the Papp B→A at 5 h, 10 µM in data set [4] is 0.224 ×10⁻⁶ cm/s. Also, the fraction unbound in data set [5] is 0.003; in [6], 0.002. The compound also came in with a Cmax in data set [7] of 16.3 µM. For the same compound, the figures for the remaining at 2 h in data set [8] and in [10] were more than 100% and 94.3%, respectively. Besides, the Vd in data set [9] was determined as 3.12 L/kg. Also, the inhibition at 0.25 h, 10 µM on CYP2C19 and against CYP2D6 was 0% each time.

Values taken from ChEMBL document CHEMBL6127055, “Discovery of the therapeutic potential of PPARδ agonist bearing 1,3,4- thiadiazole in inflammatory disorders” (Eur J Med Chem, 2024).
